ChEMBL document CHEMBL1153831, “Azithromycin blocks quorum sensing and alginate polymer formation and increases the sensitivity to serum and stationary-growth-phase killing of Pseudomonas aeruginosa and attenuates chronic P. aeruginosa lung infection in Cftr(-/-) mice” (Antimicrob Agents Chemother, 2007)
The source made the active and inactive calls. No cut-off for these calls is given here.

What was measured:
Pseudomonas aeruginosa [1] = assay: Inhibition of alginate synthesis in Pseudomonas aeruginosa NH57388A mucoid isolate supernatant assessed as uronic acid concentration in outside of dialysis bag after equilibrium dialysis at 12 ug/mL after 24 hrs by carbazole-borate assay; assay type: functional
Pseudomonas aeruginosa [2] = assay: Antimicrobial activity against quorum sensing lasI-deficient isogenic Pseudomonas aeruginosa NH57388D mucoid isolate assessed as reduction of viable count at 12 ug/mL in absence of 2.5% human normal serum; assay type: functional
Pseudomonas aeruginosa [3] = assay: Antimicrobial activity against quorum sensing lasI-deficient isogenic nonmucoid Pseudomonas aeruginosa NH57388E mutant assessed as reduction of viable count at 12 ug/mL in presence of 2.5% human normal serum; assay type: functional
Pseudomonas aeruginosa [4] = assay: Antimicrobial activity in Pseudomonas aeruginosa NH57388A mucoid isolate harboring GFP-fused […] lasB gene infected in ftr-tml-Unc-TgN(FABPCFTR) cystic fibrosis mouse lungs assessed as median alginate content in lungs at 500 mg/kg, po administered 24 hrs after infection daily once for 5 days measured after 7 days postinfection; assay type: functional
Pseudomonas aeruginosa [5] = assay: Inhibition of quorum sensing-regulated pyocyanin production in Pseudomonas aeruginosa NH57388A mucoid isolate harboring GFP-fused […] lasB gene assessed as enzyme activity per cell at 4 ug/mL after 24 hrs relative to control; assay type: functional
[6] = Drug level in Cftr-tml-Unc-TgN(FABPCFTR) cystic fibrosis mouse serum at 500 mg/kg, po after 1 hr; assay type: ADME, organism-based; parameters: dose 500 mg/kg, route oral; conditions: read-out: Drug uptake
Pseudomonas aeruginosa [7] = assay: Inhibition of quorum sensing-regulated pyocyanin production in Pseudomonas aeruginosa NH57388A mucoid isolate harboring GFP-fused […] lasB gene assessed as enzyme activity per cell at 2 ug/mL after 24 hrs relative to control; assay type: functional
Mus musculus = organism: Mus musculus; assay: Elimination half life in healthy mouse; assay type: ADME, organism-based; conditions: in vivo
Pseudomonas aeruginosa [8] = assay: Antimicrobial activity against Pseudomonas aeruginosa NH57388C nonmucoid isolate expressing quorum sensing lasI assessed as reduction of viable count at 12 ug/mL in presence of 2.5% human normal serum; assay type: functional
[9] = Drug level in Cftr-tml-Unc-TgN(FABPCFTR) cystic fibrosis mouse serum at 500 mg/kg, po after 0.5 hrs; assay type: ADME, organism-based; parameters: dose 500 mg/kg, route oral; conditions: read-out: Drug uptake
Pseudomonas aeruginosa [10] = assay: Antimicrobial activity against Pseudomonas aeruginosa NH57388A mucoid isolate assessed as reduction of viable count in stationary phase at 16 ug/mL after 8 hrs; assay type: functional
Pseudomonas aeruginosa [11] = assay: Antimicrobial activity in Pseudomonas aeruginosa NH57388A mucoid isolate harboring GFP-fused avian sarcoma virus lasB gene infected in ftr-tml-Unc-TgN(FABPCFTR) cystic fibrosis mouse lung assessed as debris-like granular material surrounding polymorphonuclear leukocytes at 500 mg/kg, po administered 24 hrs after infection daily once for 5 days measured after 7 days postinfection by histopathology; assay type: functional, organism-based; parameters: dose 500 mg/kg
Pseudomonas aeruginosa [12] = assay: Inhibition of alginate synthesis in Pseudomonas aeruginosa NH57388A mucoid isolate supernatant assessed as uronic acid concentration in inside of dialysis bag after equilibrium dialysis at 12 ug/mL after 24 hrs by carbazole-borate assay; assay type: functional
[13] = Drug level in Cftr-tml-Unc-TgN(FABPCFTR) cystic fibrosis mouse serum at 500 mg/kg, po after 4 hrs; assay type: ADME, organism-based; parameters: dose 500 mg/kg, route oral; conditions: read-out: Drug uptake
Pseudomonas aeruginosa [14] = assay: Antimicrobial activity against Pseudomonas aeruginosa NH57388A mucoid isolate expressing quorum sensing lasI assessed as reduction of viable count at 12 ug/mL in absence of 2.5% human normal serum; assay type: functional
Pseudomonas aeruginosa [15] = assay: Antimicrobial activity against Pseudomonas aeruginosa NH57388A mucoid isolate after overnight incubation by E-test; assay type: functional
Pseudomonas aeruginosa [16] = assay: Inhibition of quorum sensing in Pseudomonas aeruginosa NH57388A mucoid isolate harboring GFP-fused […] lasB gene assessed as suppression of GFP expression after 14 hrs by molecular technology; assay type: functional, organism-based
[17] = Elimination half life in Cftr-tml-Unc-TgN(FABPCFTR) cystic fibrosis mouse model at 500 mg/kg, po; assay type: ADME, organism-based; parameters: dose 500 mg/kg, route oral; conditions: in vivo, read-out: beta t1/2 (converted)
Pseudomonas aeruginosa [18] = assay: Inhibition of quorum sensing-regulated elastase production in Pseudomonas aeruginosa NH57388A mucoid isolate harboring GFP-fused […] lasB gene assessed as enzyme activity per cell at 8 ug/mL after 24 hrs relative to control; assay type: functional
Pseudomonas aeruginosa [19] = assay: Inhibition of alginate synthesis in Pseudomonas aeruginosa NH57388A mucoid isolate supernatant assessed as uronic acid fraction out of the dialysis bag of total amount of uronic acids after exhaustive dialysis at 12 ug/mL after 24 hrs by carbazole-borate assay; assay type: functional; parameters: scale not given: the % may be the effect or the level left
Pseudomonas aeruginosa [20] = assay: Increase in sensitivity of hydrogen peroxide to Pseudomonas aeruginosa NH57388A mucoid isolate expressing quorum sensing lasI assessed as increase in zone of inhibition at 12 ug/mL after 48 hrs relative to untreated bacterial control; assay type: functional; parameters: scale not given: the % may be the effect or the level left
Pseudomonas aeruginosa [21] = assay: Inhibition of quorum sensing-regulated chitinase production in Pseudomonas aeruginosa NH57388A mucoid isolate harboring GFP-fused […] lasB gene assessed as enzyme activity per cell at 8 ug/mL after 24 hrs relative to control; assay type: functional
Pseudomonas aeruginosa [22] = assay: Inhibition of quorum sensing-regulated chitinase production in Pseudomonas aeruginosa NH57388A mucoid isolate harboring GFP-fused […] lasB gene assessed as enzyme activity per cell at 2 ug/mL after 24 hrs relative to control; assay type: functional
Pseudomonas aeruginosa [23] = assay: Toxicity in Pseudomonas aeruginosa NH57388A mucoid isolate harboring GFP-fused […] lasB gene assessed as growth rate at 2 to 12 ug/mL after 14 hrs by molecular technology relative to control; assay type: organism-based
Pseudomonas aeruginosa [24] = assay: Inhibition of quorum sensing-regulated alginate production in Pseudomonas aeruginosa NH57388A mucoid isolate harboring GFP-fused […] lasB gene assessed as enzyme activity per cell at 8 ug/mL after 24 hrs relative to control; assay type: functional

CC[C@H]1OC(=O)[C@H](C)[C@@H](O[C@H]2C[C@@](C)(OC)[C@@H](O)[C@H](C)O2)[C@H](C)[C@@H](O[C@@H]2O[C@H](C)C[C@H](N(C)C)[C@H]2O)[C@](C)(O)C[C@@H](C)CN(C)[C@H](C)[C@@H](O)[C@]1(C)O [AZITHROMYCIN]
Activity (Pseudomonas aeruginosa [1]): 143 µg/mL | CFU (Pseudomonas aeruginosa [2]): 55 ×10⁶ /ml | CFU (Pseudomonas aeruginosa [3]): 2 ×10³ /ml | Activity (Pseudomonas aeruginosa [4]): 10 µg/mL | inhibition at 4 µg/mL (Pseudomonas aeruginosa [5]): 32% | concentration at 1 h [6]: 2900 ng/mL | inhibition at 2 µg/mL (Pseudomonas aeruginosa [7]): 43% | beta t1/2 (Mus musculus): 0.733 h | CFU (Pseudomonas aeruginosa [8]): 0 mL | concentration at 0.5 h [9]: 2900 ng/mL | Activity (Pseudomonas aeruginosa [10]): 99% | Activity (Pseudomonas aeruginosa [11]): Active | Activity (Pseudomonas aeruginosa [12]): 316 µg/mL | concentration at 4 h [13]: 1700 ng/mL | CFU (Pseudomonas aeruginosa [14]): 31 ×10⁶ /ml | MIC (Pseudomonas aeruginosa [15]): > 256 µg/mL | Activity (Pseudomonas aeruginosa [16]): Dose-dependent effect | half-life [17]: 2.3 h | inhibition at 8 µg/mL (Pseudomonas aeruginosa [18]): 51% | Activity (Pseudomonas aeruginosa [19]): 67.4% | Activity (Pseudomonas aeruginosa [20]): 31% | inhibition at 8 µg/mL (Pseudomonas aeruginosa [21]): 10% | inhibition at 2 µg/mL (Pseudomonas aeruginosa [22]): 66% | Activity (Pseudomonas aeruginosa [23]): Non-toxic | inhibition at 8 µg/mL (Pseudomonas aeruginosa [24]): 52%
